# Results reported in the supplement of paper PMC8149375.
# What was measured:
# Conditions in all cases: treatment: drug alone; 5 days
# 769-P [1] = test: GI50, drug alone; higher = less potent
# Protocol: (§1)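 Primary HTS: 8 RCC cell lines treated with 8 doses (up to 10 uM) of each library drug alone for 5 days; viability read by CellTiter-Glo and normalised to DMSO. GI50 was fitted with XLfit (4-parameter), AUC is the area under the dose-response curve, and minimum viability is the lowest fraction of DMSO viability across doses.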
# 786-O [2] = test: GI50, drug alone; higher = less potent
# Protocol: as §1
# A498 [3] = test: GI50, drug alone; higher = less potent
# Protocol: as §1
# ACHN [4] = test: GI50, drug alone; higher = less potent
# Protocol: as §1
# CAKI-1 [5] = test: GI50, drug alone; higher = less potent
# Protocol: as §1
# SN12C [6] = test: GI50, drug alone; higher = less potent
# Protocol: as §1
# TK-10 [7] = test: GI50, drug alone; higher = less potent
# Protocol: as §1
# UO-31 [8] = test: GI50, drug alone; higher = less potent
# Protocol: as §1
# 769-P [9] = test: minimum viability across doses, drug alone, relative to DMSO (fraction); higher = less growth inhibition
# Protocol: as §1
# 786-O [10] = test: as above
# Protocol: as §1
# A498 [11] = test: as above
# Protocol: as §1
# ACHN [12] = test: as above
# Protocol: as §1
# CAKI-1 [13] = test: as above
# Protocol: as §1
# SN12C [14] = test: as above
# Protocol: as §1
# TK-10 [15] = test: as above
# Protocol: as §1
# UO-31 [16] = test: as above
# Protocol: as §1
# 769-P [17] = test: AUC of dose-response viability curve, drug alone (arbitrary (AUC of normalised viability)); higher = less growth inhibition
# Protocol: as §1
# 786-O [18] = test: as above
# Protocol: as §1
# A498 [19] = test: as above
# Protocol: as §1
# ACHN [20] = test: as above
# Protocol: as §1
# CAKI-1 [21] = test: as above
# Protocol: as §1
# SN12C [22] = test: as above
# Protocol: as §1
# TK-10 [23] = test: as above
# Protocol: as §1
# UO-31 [24] = test: as above
# Protocol: as §1
"GI50, drug alone (786-O [2]) [µM]","GI50, drug alone (ACHN [4]) [µM]",SMILES,"GI50, drug alone (769-P [1]) [µM]","GI50, drug alone (A498 [3]) [µM]","GI50, drug alone (CAKI-1 [5]) [µM]","GI50, drug alone (SN12C [6]) [µM]","GI50, drug alone (TK-10 [7]) [µM]","GI50, drug alone (UO-31 [8]) [µM]",minimum viability across doses (769-P [9]),minimum viability across doses (786-O [10]),minimum viability across doses (A498 [11]),minimum viability across doses (ACHN [12]),minimum viability across doses (CAKI-1 [13]),minimum viability across doses (SN12C [14]),minimum viability across doses (TK-10 [15]),minimum viability across doses (UO-31 [16]),AUC of dose-response viability curve (769-P [17]),AUC of dose-response viability curve (786-O [18]),AUC of dose-response viability curve (A498 [19]),AUC of dose-response viability curve (ACHN [20]),AUC of dose-response viability curve (CAKI-1 [21]),AUC of dose-response viability curve (SN12C [22]),AUC of dose-response viability curve (TK-10 [23]),AUC of dose-response viability curve (UO-31 [24])
1.14,3,Cn1cnc2c(F)c(Nc3ccc(Br)cc3Cl)c(C(=O)NOCCO)cc21 [AZD6244 (Selumetinib)],3.95,> 10,1.66,> 10,3.05,> 10,0.381,0.371,0.59,0.371,0.23,0.664,0.419,0.728,2.75,2.41,3.06,2.59,2.51,2.88,2.45,4
0.034,0.0173,NC(=O)Nc1cc(-c2cccc(F)c2)sc1C(=O)N[C@H]1CCCNC1 [AZD7762],0.175,0.308,0.156,0.408,0.0685,0.0818,0.0526,0.00636,0.0492,0.0318,0.00629,0.00737,0.0208,0.00565,1.82,1.1,2.53,0.873,1.78,2.07,1.39,2.1
0.00959,0.0415,COc1ccc(-c2ccc3c(N4CCOC[C@@H]4C)nc(N4CCOC[C@@H]4C)nc3n2)cc1CO [AZD8055],0.171,0.37,0.119,0.11,0.0851,0.0691,0.109,0.00631,0.229,0.0903,0.0607,0.163,0.0959,0.00497,1.76,0.809,2.4,1.25,1.48,1.62,1.48,1.29
0.0573,0.14,Cc1cc(C(=O)NOCCO)c(Nc2ccc(I)cc2F)n(C)c1=O [AZD8330],0.385,> 10,0.134,0.865,0.123,> 10,0.281,0.31,0.789,0.299,0.209,0.386,0.317,0.527,2.04,1.78,3.63,1.69,1.73,2.36,1.74,3.95
> 10,0.609,CNC(=O)CN1CCC(Oc2cc3c(Nc4cccc(Cl)c4F)ncnc3cc2OC)CC1 [AZD8931],1.15,> 10,> 10,> 10,1.21,> 10,0.336,0.474,0.994,0.323,0.576,0.696,0.333,0.785,2.32,2.67,4.39,2.08,2.86,3.06,2.35,3.56
1.46,0.162,CN(C)C/C=C/C(=O)Nc1cc2c(Nc3ccc(F)c(Cl)c3)ncnc2cc1O[C@H]1CCOC1 [Afatinib (BIBW2992)],0.298,2.86,0.673,1.34,0.157,2.61,0.0284,0.00665,0.00814,0.000546,0.047,0.0794,0.0844,0.00799,1.94,2.26,2.87,1.71,2.18,2.37,1.73,3.72
0.686,2.63,S=C(NCc1ccc2c(c1)OCO2)N1CCN(c2ncnc3c2oc2ccccc23)CC1 [Amuvatinib (MP-470)],> 10,3.14,> 10,1.56,4.83,2.68,0.527,0.104,0.103,0.113,0.832,0.0586,0.28,0.0651,3.25,2.22,3.63,2.87,3.74,2.63,2.82,3.73
0.00825,2.42,S=C(NCc1ccc2c(c1)OCO2)N1CCN(c2ncnc3c2oc2ccccc23)CC1 [Amuvatinib (MP-470)_R2],> 10,4.19,> 10,1.56,2.27,2.57,0.578,0.0372,0.131,0.151,0.749,0.0284,0.198,0.0813,3.38,1.54,3.12,2.69,3.34,2.51,2.19,3.43
> 10,> 10,CS(=O)(=O)O.N#CC1(c2ccc(NC(=O)c3cccnc3NCc3ccncc3)cc2)CCCC1 [Apatinib (YN968D1)],> 10,> 10,> 10,> 10,> 10,8.33,0.901,0.648,1.02,0.676,0.666,0.799,0.739,0.126,3.53,3.23,4.78,3.21,2.93,3.39,2.84,5.2
